This note sets out measurements from patent publication US5859007A, “CCK or gastrin modulating benzo [b][1,4] diazepines derivatives” (Glaxo Wellcome Inc., priority 1994, dated 1999).

For this assay, the system named is isolated guinea pig gallbladder. Put plainly: Functional activity in isolated guinea pig gallbladder preparation. The format is cell-based. Conditions: expressed as % CCK-induced maximal response; for activation at 1 µM / activation at 30 µM: Cavia porcellus; for activation at 1 µM / %Contraction (1 × 10^-6 M): 1 × 10^-6 M test compound; for activation at 1 µM: read-out: %Contraction (1 × 10^-6 M); for activation at 30 µM: read-out: % Contraction (3 × 10^-5 M).

Take `COc1ccc(N(C(=O)CN2C(=O)C(C)(Cc3ccc4ccccc4c3)C(=O)N(c3ccccc3)c3ccccc32)C(C)C)cc1` (stereo not drawn) [Example 38, N-Isopropyl-N-(4-methoxy-phenyl)-2-(3-methyl-3-naphthalen-2-ylmethyl-2,4-dioxo-5-phenyl-2,3,4,5-tetrahydro-benzo[b][1,4]diazepin-1-yl) acetamide]: the activation at 1 µM turned out to be 30%. As to `CC(C)N(C(=O)CN1C(=O)C(C)(Cc2noc(-c3ccccc3)n2)C(=O)N(c2ccccc2)c2ccccc21)c1ccccc1` (stereo not drawn) [Example 10, N-Isopropyl-2-[3-methyl-2,4-dioxo-5-phenyl-3-(5-phenyl-[1,2,4]oxadiazol-3-ylmethyl)-2,3,4,5-tetrahydro-benzo[b][1,4]diazepin-1-yl]-N-phenyl acetamide], the activation at 1 µM was 7%. For `COc1ccc(N(C(=O)CN2C(=O)C(Cc3n[nH]c4ccccc34)C(=O)N(c3cccc(F)c3)c3ccccc32)C(C)C)cc1` (stereo not drawn) [Example 81, 2-[5-(3-Fluoro-phenyl)-3-(1H-indazol-3-ylmethyl)-2,4-dioxo-2,3,4,5-tetrahydro-benzo[b][1,4]diazepin-1-yl]-N-isopropyl-N-(4-methoxy-phenyl)-acetamide], the activation at 1 µM came out at 97%. Also, the activation at 30 µM (3 × 10^-5 M test compound) came to 96%. As for `CC(C)N(C(=O)CN1C(=O)C(Cc2n[nH]c3cc(F)ccc23)C(=O)N(c2ccccc2)c2ccccc21)c1ccc(F)cc1` (stereo not drawn) [Example 63, 2-[3-(6-Fluoro-1H-indazol-3-ylmethyl)-2,4-dioxo-5-phenyl-2,3,4,5,tetrahydro-benzo[b][1,4]diazepin-1-yl]-N-(4-fluoro-phenyl)-N-isopropyl-acetamide], the activation at 1 µM stood at 77%. Also, for the setting “3 × 10^-5 M test compound”, the activation at 30 µM turned out to be 96%. As for `COc1ccc(N(C(=O)CN2C(=O)C(C)(Cc3cccc4ccccc34)C(=O)N(c3ccccc3)c3ccccc32)C(C)C)cc1` (stereo not drawn) [Example 35, N-Isopropyl-N-(4-methoxy-phenyl)-2-(3-methyl-3-naphthalen-1-ylmethyl-2,4-dioxo-5-phenyl-2,3,4,5-tetrahydro-benzo[b][1,4]diazepin-1-yl) acetamide], the activation at 1 µM was 44%. With `CC(C)N(C(=O)CN1C(=O)C(Cc2n[nH]c3ccccc23)C(=O)N(c2ccccc2)c2ccccc21)c1ccccc1` (stereo not drawn) [Example 68, 2-[3-(1H-indazol-3-ylmethyl)-2,4-dioxo-5-phenyl-2,3,4,5-tetrahydro-benzo[b][1,4]diazepin-1-yl]-N-isopropyl-N-phenyl-acetamide], the activation at 1 µM is 93%. Further, under “3 × 10^-5 M test compound”, the activation at 30 µM worked out at 99%. In the case of `COc1ccc(N(C(=O)CN2C(=O)C(Cc3n[nH]c4ccccc34)C(=O)N(c3ccncc3)c3ccccc32)C(C)C)cc1` (stereo not drawn) [Example 80, 2-[3-(1H-Indazol-3-ylmethyl)-2,4-dioxo-5-pyridin-4-yl-2,3,4,5-tetrahydro-benzo[b][1,4]diazepin-1-yl]-N-isopropyl-N-(4-methoxy-phenyl)-acetamide], the activation at 1 µM came out at 81%. The activation at 30 µM (3 × 10^-5 M test compound) was 73%. As to `COc1ccc(N(C(=O)CN2C(=O)C(Cc3ccc4ccccc4c3)C(=O)N(c3ccccc3)c3ccccc32)C(C)C)cc1` (stereo not drawn) [Example 36, N-Isopropyl-N-(4-methoxy-phenyl)-2-(3-naphthalen-2-ylmethyl-2,4-dioxo-5-phenyl-2,3,4,5-tetrahydro-benzo[b][1,4]diazepin-1-yl) acetamide], the activation at 1 µM came out at 19%. Turning to `CC(C)N(C(=O)CN1C(=O)C(C)(CC=Cc2ccccc2)C(=O)N(c2ccccc2)c2ccccc21)c1ccccc1` (stereo not drawn) [Example 11, N-Isopropyl-2-[3-methyl-2,4-dioxo-5-phenyl-3-(3-phenyl-allyl)-2,3,4,5-tetrahydro-benzo[b][1,4]diazepin-1-yl]-N-phenyl acetamide], the activation at 1 µM came to 10%. Consider `COc1ccc(N(C(=O)CN2C(=O)C(Cc3n[nH]c4ccccc34)C(=O)N(c3cccnc3)c3ccccc32)C(C)C)cc1` (stereo not drawn) [Example 71, 2-[3-(1H-indazol-3-ylmethyl)-2,4-dioxo-5-pyridin-3-yl-2,3,4,5-tetrahydrobenzo[b][1,4]diazepin-1-yl]-N-isopropyl-N-(4-methoxy-phenyl) acetamide], for which the activation at 1 µM came to 106%. The activation at 30 µM (3 × 10^-5 M test compound) came out at 92%. As for `COc1ccc(N(C(=O)CN2C(=O)C(Cc3n[nH]c4ccccc34)C(=O)N(c3cccnc3)c3ccccc32)C(C)C)cc1` (single isomer, unassigned; (+)) [Example 72, (+)-2-[3-(1H-Indazol-3-ylmethyl)-2,4-dioxo-5-pyridin-3-yl-2,3,4,5-tetrahydrobenzo[b][1,4]diazepin-1-yl]-N-isopropyl-N-(4-methoxyphenyl) acetamide], the “%Contraction (1 × 10^-6 M)” value came to 104%. For the same compound, for the setting “3 × 10^-5 M test compound”, the “% Contraction (3 × 10^-5 M)” value was found to be 93%. In the case of `CC(C)N(C(=O)CN1C(=O)C(C)(CC(=O)N(C)c2ccccc2)C(=O)N(c2ccccc2)c2ccccc21)c1ccccc1` (stereo not drawn) [Example 5, 2-(2,4-Dioxo-5-phenyl-3-methyl-N-methyl-3-phenylcarbamoylmethyl-2,3,4,5-tetrahydro-benzo[b][1,4]diazepin-1-yl)-N-isopropyl-N-phenyl acetamide], the activation at 1 µM is 9%. Consider `COc1ccc(N(C(=O)CN2C(=O)C(CC(=O)Nc3ccccc3)(OC)C(=O)N(c3ccccc3)c3ccccc32)C(C)C)cc1` (stereo not drawn) [Example 21, N-Isopropyl-2-(3-methoxy-2,4-dioxo-5-phenyl-3-phenylcarbamoylmethyl-2,3,4,5-tetrahydro-benzo[b][1,4]diazepin-1-yl)-N-(4-methoxy-phenyl)-acetamide], for which the activation at 1 µM amounted to 80%. Besides, the activation at 30 µM (3 × 10^-5 M test compound) amounted to 90%. Turning to `COc1ccc(N(C(=O)CN2C(=O)C(Cc3cc(C)n[nH]3)C(=O)N(c3ccccc3)c3ccccc32)C(C)C)cc1` (stereo not drawn) [Example 55, N-Isopropyl-N-(4-methoxy-phenyl)-2-[3-(5-methyl-2H-pyrazol-3ylmethyl)-2,4-dioxo-5-phenyl-2,3,4,5-tetrahydro-benzo[b][1,4]diazepin-1-yl]-acetamide], the activation at 1 µM is 21%. For the compound `CC(C)(C)N(C(=O)CN1C(=O)C(Cc2n[nH]c3ccccc23)C(=O)N(c2ccccc2)c2ccccc21)c1ccccc1` (stereo not drawn) [Example 65, N-tert-Butyl-2-[3-(1H-indazol-3-ylmethyl)-2,4-dioxo-5-phenyl-2,3,4,5,tetrahydro-benzo[b][1,4]diazepin-1-yl]-N-phenyl-acetamide], the activation at 1 µM was 88%. In addition, under “3 × 10^-5 M test compound”, the activation at 30 µM came out at 93%. As to `COc1ccc(N(C(=O)CN2C(=O)C(Cc3n[nH]c4ccccc34)C(=O)N(c3ccccc3)c3ccccc32)C2CCCC2)cc1` (stereo not drawn) [Example 62, N-Cyclopentyl-2-[3-(1H-indazol-3-ylmethyl)-2,4-dioxo-5-phenyl-2,3,4,5,tetrahydro-benzo[b][1,4]diazepin-1-yl]-N-(4-methoxy-phenyl)-acetamide], the activation at 1 µM is 96%. For the same compound, the activation at 30 µM (3 × 10^-5 M test compound) amounted to 86%. Regarding `CCOC(=O)c1cccc(NC(=O)CC2C(=O)N(CC(=O)N(c3ccccc3)C(C)C)c3ccccc3N(c3ccccc3)C2=O)c1` (stereo not drawn) [Example 1], the activation at 30 µM (3 × 10^-5 M test compound) was found to be 64%. With `COc1ccc(N(C(=O)CN2C(=O)C(C)(Cc3n[nH]c4ccccc34)C(=O)N(c3ccccc3)c3ccccc32)C(C)C)cc1` (stereo not drawn) [Example 30, 2-[3-(1H-Indazol-3-ylmethyl)-3-methyl-2,4-dioxo-5-phenyl-2,3,4,5-tetrahydro-benzo[b][1,4]diazepin-1-yl]-N-isopropyl-N-(4-methoxy-phenyl) acetamide], the activation at 1 µM was found to be 75%. In addition, for the setting “3 × 10^-5 M test compound”, the activation at 30 µM came to 70%. Consider `COc1ccc(N(C(=O)CN2C(=O)C(CC(=O)O)(CC(=O)Nc3ccccc3)C(=O)N(c3ccccc3)c3ccccc32)C(C)C)cc1` (stereo not drawn) [Example 29, {1-[Isopropyl-(4-methoxy-phenyl)-carbamoylmethyl]-2,4-dioxo-5-phenyl-3-phenylcarbamoylmethyl-2,3,4,5-tetrahydro-1H-benzo[b][1,4]diazepin-3-yl}acetic acid], for which the activation at 1 µM was determined as 65%. Also, the activation at 30 µM (3 × 10^-5 M test compound) was determined as 85%. Take `COc1ccc(N(C(=O)CN2C(=O)C(Cc3nn(Cc4ccccc4)c4ccccc34)C(=O)N(c3ccccc3)c3ccccc32)C(C)C)cc1` (stereo not drawn) [Example 27, 2-[3-(1-Benzyl-1H-indazol-3-ylmethyl)-2,4-dioxo-5-phenyl-2,3,4,5-tetrahydro-benzo[b][1,4]diazepin-1-yl]-N-isopropyl-N-(4-methoxy-phenyl) acetamide]: the activation at 30 µM (3 × 10^-5 M test compound) amounted to 40%. As to `CC(C)N(C(=O)CN1C(=O)C(C)(CCNc2ccccc2)C(=O)N(c2ccccc2)c2ccccc21)c1ccccc1` (stereo not drawn) [Example 6, N-Isopropyl-2-[3-methyl-2,4-dioxo-5-phenyl-3-(2-phenylaminoethyl)-2,3,4,5-tetrahydro-benzo[b][1,4]diazepin-1-yl]-N-phenyl acetamide], the activation at 1 µM was 7%. For `COc1ccc(N(C(=O)CN2C(=O)C(CC(=O)Nc3ccccc3)C(=O)N(c3ccccc3)c3ccccc32)C(C)C)cc1` (stereo not drawn) [Example 39, 2-(2,4-dioxo-5-phenyl-3-phenylcarbamoylmethyl-2,3,4,5-tetrahydro-benzo[b][1,4]diazepin-1-yl)-N-isopropyl-N-(4-methoxy-phenyl)-acetamide], the “%Contraction (1 × 10^-6 M)” value is on record as 57%.

In the case of `CC(C)N(C(=O)CN1C(=O)C(C)(CC(=O)Nc2cccc(C(=O)O)c2)C(=O)N(c2ccccc2)c2ccccc21)c1ccccc1` (stereo not drawn) [Example 3, 2-[2,4-Dioxo-5-phenyl-3-methyl-3-(3-carboxyphenyl)carbamoylmethyl-2,3,4,5-tetrahydro-benzo[b][1,4]diazepin-1-yl]-N-isopropyl-N-phenyl acetamide], the activation at 1 µM turned out to be 75%. For the same compound, the activation at 30 µM (3 × 10^-5 M test compound) was determined as 102%. Regarding `CC(C)N(C(=O)CN1C(=O)C(C)(CC(N)=O)C(=O)N(c2ccccc2)c2ccccc21)c1ccccc1` (stereo not drawn) [Example 13, 2-[1-(Isopropyl-phenyl-carbamoylmethyl)-3-methyl-2,4-dioxo-5-phenyl-2,3,4,5-tetrahydro-1H-benzo[b][1,4]diazepine-3-yl]acetamide], the activation at 1 µM worked out at 6%.
